Laboratory results published in PubChem BioAssay (NCI).
Several values for one entry are separate records, joined by “and”; a condition that tells them apart may be missing. Equal entries are not always repeated.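 96-well plates; 48 h exposure; 5 concentrations. Endpoints by linear interpolation between flanking doses. Not reached: highest tested concentration assigned. GI50 = concentration required for 50% inhibition of growth. TGI: concentration producing complete growth inhibition.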

Tests used:
Assay in all cases: NCI anticancer screen, dose series, 48 h
K-562 leukemia = test system: K-562 leukemia
HOP-92 NSCLC = test system: HOP-92 NSCLC
NCI-H460 lung = test system: NCI-H460 lung
DU-145 prostate = test system: DU-145 prostate
CAKI-1 renal = test system: CAKI-1 renal
KM12 colon = test system: KM12 colon
MOLT-4 leukemia = test system: MOLT-4 leukemia
UACC-257 melanoma = test system: UACC-257 melanoma
RPMI-8226 leukemia = test system: RPMI-8226 leukemia
TK-10 renal = test system: TK-10 renal

Structure (SMILES)	GI50 (K-562 leukemia) [µM]	TGI (K-562 leukemia) [µM]	GI50 (HOP-92 NSCLC)	TGI (HOP-92 NSCLC)	GI50 (NCI-H460 lung) [µM]	TGI (NCI-H460 lung)	GI50 (DU-145 prostate)	TGI (DU-145 prostate)	GI50 (CAKI-1 renal)	TGI (CAKI-1 renal)	GI50 (KM12 colon)	TGI (KM12 colon)	GI50 (MOLT-4 leukemia) [µM]	TGI (MOLT-4 leukemia) [µM]	GI50 (UACC-257 melanoma)	TGI (UACC-257 melanoma)	GI50 (RPMI-8226 leukemia)	TGI (RPMI-8226 leukemia)	GI50 (TK-10 renal)	TGI (TK-10 renal)
Cc1cn2c(/C=C3\C(=O)N(C)c4ccc(O)cc43)c(C)nc2s1	2.01	20.6	31.7 µM	> 100 µM	3.54	21.3 µM	21 µM	> 100 µM	5.13 µM	45.8 µM	2.38 µM	> 100 µM	4.71	34.7	> 100 µM	> 100 µM	5.98 µM	> 100 µM	16.1 µM	> 100 µM
CCOC(=O)CNC(=O)c1ccccc1Nc1ccnc(C(F)(F)F)c1	24	> 69.4	0.0572 µM	7.62 µM	29.8	> 68.1 µM	46.9 µM	99.8 µM	20.9 µM	> 62.5 µM	30.2 µM	> 86 µM	17.7	54.3	68.7 µM	> 100 µM	12.7 µM	35.1 µM	41.6 µM	> 100 µM
O=C(Nc1ccc(Br)cc1)c1ccc(Cl)c(Cl)c1	3.99	> 100	0.341 µM	5.1 µM	3.16	> 30.5 µM	3.86 µM	> 100 µM	1.51 µM	4.58 µM	3.16 µM	> 100 µM	3.17	> 100	3.69 µM	> 89.2 µM	3.15 µM	> 100 µM	4.78 µM	> 100 µM
Oc1cn(-c2ccc(Cl)cc2)nc1-c1n[nH]c(=S)n1C1CCCCC1	< 0.0427	–	38.7 µM	> 100 µM	0.334	> 100 µM	0.502 µM	> 33.9 µM	0.389 µM	> 100 µM	1.04 µM	17.5 µM	0.5	> 29	0.873 µM	> 100 µM	0.248 µM	30.9 µM	0.807 µM	34.1 µM
COc1cccc(/C(COc2ccc3c(c2)oc(=O)c2cc(OC)ccc23)=N/O)c1	4.43	> 100	37 µM	> 100 µM	3.81	> 100 µM	26 µM	> 100 µM	6.7 µM	> 100 µM	3.86 µM	> 100 µM	5.61	> 100	34.8 µM	> 100 µM	4.76 µM	> 100 µM	16.5 µM	> 100 µM
Cc1cc[c-]cc1.Fc1c[c-]c(-c2ccccn2)c(F)c1.[Pt+2].c1ccc(P(C[PH+](c2ccccc2)c2ccccc2)c2ccccc2)cc1	1.56	12.2	1.57 µM	4.97 µM	1.77	7.1 µM	2.99 µM	12.8 µM	2.43 µM	9.03 µM	2.4 µM	9.23 µM	3.35	12.2	2.37 µM	8.15 µM	0.719 µM	4.38 µM	2.93 µM	14.8 µM
NC(N)=NCCCCCNc1noc(Cc2c[nH]c3cc(Br)ccc23)n1	9.4	38.6	2.96 µM	46.7 µM	12.4	43.3 µM	20.4 µM	> 100 µM	66.7 µM	> 100 µM	3.95 µM	15.9 µM	8.12	36.3	14.6 µM	80.3 µM	6.78 µM	47.1 µM	49.4 µM	> 100 µM
COc1cc2c(c(OC)n1)[C@]1(O)[C@H](O)[C@H](CN(C)C)[C@@H](c3ccccc3)[C@]1(c1ccc(C#N)cc1)O2	< 0.01	–	0.0521 µM and 0.0346 µM	4.3 µM and 0.991 µM	< 0.01	3.48 µM and 6.88 µM	0.0191 µM and < 0.0136 µM	3.45 µM and 3.69 µM	0.0276 µM and 0.0178 µM	1.68 µM and 4.38 µM	0.0128 µM and < 0.01 µM	3.61 µM and 7.59 µM	< 0.01	–	0.0417 µM and 0.0427 µM	2.45 µM and 2.12 µM	0.0151 µM and < 0.01 µM	0.299 µM and 0.15 µM	0.0543 µM and 0.0672 µM	2.9 µM and 6.22 µM
COc1ccc2c(c1)C(C)Cc1c(ncnc1-n1c(C)nc3ccccc31)N2C (configuration not stated)	0.452	13.3	3.34 µM	17.4 µM	3.85	14.4 µM	3.27 µM	13.4 µM	4.48 µM	78.8 µM	2.59 µM	17.8 µM	2.39	12.5	14.8 µM	33.5 µM	3.96 µM	24.3 µM	7.28 µM	45.9 µM
C[C@]12CC[C@H](O)C[C@H]1CC[C@@H]1[C@@H]2CC[C@]2(C)[C@@H](C3=CC(=O)OC3)CC[C@]12O	–	1.42	–	1.1 µM	–	0.139 µM	0.0325 µM	0.146 µM	–	0.18 µM	–	3.27 µM	–	0.0537	–	2.63 µM	–	0.558 µM	–	1.59 µM
COc1ccc2c(c1)[C@@]13CCCC[C@H]1[C@@H](C2)N(C)CC3=O	–	> 100	–	28.4 µM	–	69.5 µM	–	45.2 µM	–	> 100 µM	–	33.6 µM	–	> 100	–	30.5 µM	–	96.8 µM	–	40.7 µM
CC(C)N=c1cc2n(-c3ccc(Cl)cc3)c3ccccc3nc-2cc1Nc1ccc(Cl)cc1	2.24	> 100	0.629 µM	2.83 µM	0.778	> 50 µM	3.14 µM and 3.41 µM	> 100 µM	1.73 µM	> 20.9 µM	1.18 µM	> 50 µM	2.56	> 100	2.58 µM	> 50 µM	0.821 µM	2.62 µM	–	> 100 µM
CCOC(=O)c1c[nH]c2oc(/C=N/N3CC(CN4CCOCC4)OC3=O)cc2c1=O (configuration not stated)	–	> 100	–	> 100 µM	–	> 100 µM	–	> 100 µM	–	> 100 µM	–	> 100 µM	–	> 100	–	> 100 µM	–	> 100 µM	–	> 100 µM
